How the values were obtained:
[1] = target: recombinant human S1P1 receptor (Homo sapiens, UniProt P21453); assay: GTPγS assay to determine EC50 values; assay type: biochemical; details: 35S-GTPγS binding
Description: GTPγS binding assays are performed in 96 well microtiter plates (Nunc, 442587) in a final volume of 200 μl, using membrane preparations of CHO cells expressing recombinant human S1P1 receptor. Assay conditions are 20 mM Hepes (Fluka, 54461), 100 mM NaCl (Fluka, 71378), 5 mM MgCl2 (Fluka, 63064), 0.1% BSA (Calbiochem, 126609), 1 μM GDP (Sigma, G-7127), 2.5% DMSO (Fluka, 41644), 50 pM ^355-GTPγS (Amersham Biosciences, SJ1320). The pH is 7.4. Test compounds are dissolved and diluted in 100% DMSO and pre-incubated at room temperature for 30 min in 150 μl of the above assay buffer, in the absence of ^355-GTPγS. After addition of 50 μl of ^355-GTPγS, the assay is incubated for 1 h at rt. The assay is terminated by transfer of the reaction mixture to a Multiscreen plate (Millipore, MAHFC1H60) using a cell harvester from Packard Biosciences, and the plates are washed with ice-cold 10 mM Na2HPO4/NaH2PO4 (70%/30%), dried, sealed at the bottom and, after addition of 25 μl MicroScint20 (Packard Biosciences, order #6013621), sealed on the top. Membrane-bound ^35S-GTPγS is measured with a TopCount from Packard Biosciences.
EC50 is the concentration of agonist inducing 50% of the maximal specific ^35S-GTPγS binding. Specific binding is determined by subtracting non-specific binding from maximal binding. Maximal binding is the amount of cpm bound to the Multiscreen plate in the presence of 10 μM of S1P. Non-specific binding is the amount of binding in the absence of an agonist in the assay.

circulating lymphocytes = assay: Assessment of in vivo efficacy: circulating lymphocytes after oral administration; set-up: species or system normotensive male Wistar rats; details: 3 h after oral administration of 10 mg/kg, male Wistar rats, compared to vehicle-treated group
Description: The efficacy of the compounds of formula (I) is assessed by measuring the circulating lymphocytes after oral administration of 3 to 30 mg/kg of a compound of formula (I) to normotensive male Wistar rats. The animals are housed in climate-controlled conditions with a 12 h-light/dark cycle, and have free access to normal rat chow and drinking water.
Blood is collected before and 3, 6 and 24 h after drug administration. Full blood is subjected to hematology using Advia Hematology system (Bayer Diagnostics, Zurich, Switzerland).
All data are presented as mean±SEM. Statistical analyses are performed by analysis of variance (ANOVA) using Statistica (StatSoft) and the Student-Newman-Keuls procedure for multiple comparisons. The null hypothesis is rejected when p<0.05.

[2] = membrane preparations of CHO cells expressing recombinant human S1P1 receptor

recombinant human S1P1 receptor, sequence (P21453 whole entry): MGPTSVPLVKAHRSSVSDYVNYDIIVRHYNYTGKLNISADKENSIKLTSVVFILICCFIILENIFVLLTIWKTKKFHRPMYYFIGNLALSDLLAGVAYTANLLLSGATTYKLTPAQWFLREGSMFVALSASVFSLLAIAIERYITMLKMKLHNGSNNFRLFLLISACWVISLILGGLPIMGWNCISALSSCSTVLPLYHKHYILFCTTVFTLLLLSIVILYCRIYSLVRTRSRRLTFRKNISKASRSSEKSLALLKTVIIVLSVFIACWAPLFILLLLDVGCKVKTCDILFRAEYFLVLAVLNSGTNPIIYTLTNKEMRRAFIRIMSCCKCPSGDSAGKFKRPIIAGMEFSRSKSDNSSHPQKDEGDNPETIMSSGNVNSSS

Molecule	EC50 [1, 2]	also measured
CCCN(C)Cc1cc(CC)cc(-c2nc(-c3cc(C)c(OC[C@@H](O)CNC(=O)CO)c(CC)c3)no2)c1 [Example 51, N—{(S)-3-[2-ethyl-4-(5-{3-ethyl-5-[(methyl-propyl-amino)-methyl]-phenyl}-[1,2,4]oxadiazol-3-yl)-6-methyl-phenoxy]-2-hydroxy-propyl}-2-hydroxy-acetamide]	2.4 nM	
CCc1cc(-c2nc(-c3cc(C)c(OC[C@@H](O)CNC(=O)CO)c(CC)c3)no2)ccc1CN(C)C [Example 99, N—((S)-3-{4-[5-(4-dimethylaminomethyl-3-ethyl-phenyl)-[1,2,4]oxadiazol-3-yl]-2-ethyl-6-methyl-phenoxy}-2-hydroxy-propyl)-2-hydroxy-acetamide]		Lymphocyte counts (circulating lymphocytes): −61.0%
CCCc1cc(CN(C)CCC)cc(-c2nc(-c3cc(C)c(OC[C@@H](O)CNC(=O)CO)c(CC)c3)no2)c1 [Example 61, N—{(S)-3-[2-ethyl-6-methyl-4-(5-{3-[(methyl-propyl-amino)-methyl]-5-propyl-phenyl}-[1,2,4]oxadiazol-3-yl)-phenoxy]-2-hydroxy-propyl}-2-hydroxy-acetamide]	3.6 nM	
CCCCN(C)Cc1cc(CCC)cc(-c2nc(-c3cc(C)c(OC[C@@H](O)CNC(=O)CO)c(CC)c3)no2)c1 [Example 62, N—{(S)-3-[4-(5-{3-[(butyl-methyl-amino)-methyl]-5-propyl-phenyl}-[1,2,4]oxadiazol-3-yl)-2-ethyl-6-methyl-phenoxy]-2-hydroxy-propyl}-2-hydroxy-acetamide]	3.1 nM	
CCCCN(C)Cc1cc(CC)cc(-c2nc(-c3cc(C)c(OC[C@@H](O)CNC(=O)CO)c(CC)c3)no2)c1 [Example 52, N—{(S)-3-[4-(5-{3-[(butyl-methyl-amino)-methyl]-5-ethyl-phenyl}-[1,2,4]oxadiazol-3-yl)-2-ethyl-6-methyl-phenoxy]-2-hydroxy-propyl}-2-hydroxy-acetamide]	2 nM	
N-(3-{4-[5-(4-dimethylaminomethyl-3-methyl-phenyl)-[1,2,4]oxadiazol-3-yl]-2,6-dimethyl-phenoxy}-2-hydroxy-propyl)-2-hydroxy-acetamide [Example 127]	8.5 nM	
CCCc1cc(CNCC(C)C)cc(-c2nc(-c3cc(C)c(OC[C@@H](O)CNC(=O)CO)c(CC)c3)no2)c1 [Example 58, N—[(S)-3-(2-ethyl-4-{5-[3-(isobutylamino-methyl)-5-propyl-phenyl]-[1,2,4]oxadiazol-3-yl}-6-methyl-phenoxy)-2-hydroxy-propyl]-2-hydroxy-acetamide]	8.4 nM	
CCc1cc(CN(C)C)cc(-c2nc(-c3cc(C)c(OC[C@@H](O)CNC(=O)CO)c(CC)c3)no2)c1 [Example 49, N—((S)-3-{4-[5-(3-dimethylaminomethyl-5-ethyl-phenyl)-[1,2,4]oxadiazol-3-yl]-2-ethyl-6-methyl-phenoxy}-2-hydroxy-propyl)-2-hydroxy-acetamide]	3.7 nM	
CCc1cc(-c2noc(-c3cc(CN(C)CC(C)C)cc(C(C)C)c3)n2)cc(C)c1OC[C@@H](O)CNC(=O)CO [Example 73, N—{(S)-3-[2-ethyl-4-(5-{3-[(isobutyl-methyl-amino)-methyl]-5-isopropyl-phenyl}-[1,2,4]oxadiazol-3-yl)-6-methyl-phenoxy]-2-hydroxy-propyl}-2-hydroxy-acetamide]	2 nM	
CCc1cc(-c2nc(-c3cc(C)c(OC[C@@H](O)CNC(=O)CO)c(CC)c3)no2)ccc1CN1CCCC1 [Example 105, N—((S)-3-{2-ethyl-4-[5-(3-ethyl-4-pyrrolidin-1-ylmethyl-phenyl)-[1,2,4]oxadiazol-3-yl]-6-methyl-phenoxy}-2-hydroxy-propyl)-2-hydroxy-acetamide]	8 nM	
CCc1ccc(-c2nc(-c3cc(C)c(OC[C@@H](O)CNC(=O)CO)c(CC)c3)no2)cc1CN(C)C [Example 89]	22 nM	
CCN(C)Cc1cc(C)cc(-c2nc(-c3cc(C)c(OC[C@@H](O)CNC(=O)CO)c(C)c3)no2)c1 [Example 147, N—{(S)-3-[4-(5-{3-[(ethyl-methyl-amino)-methyl]-5-methyl-phenyl}-[1,2,4]oxadiazol-3-yl)-2,6-dimethyl-phenoxy]-2-hydroxy-propyl}-2-hydroxy-acetamide]	2 nM	
CCCCN(C)Cc1cc(-c2nc(-c3cc(C)c(OC[C@@H](O)CNC(=O)CO)c(CC)c3)no2)cc(C(C)C)c1 [Example 72, N—{(S)-3-[4-(5-{3-[(butyl-methyl-amino)-methyl]-5-isopropyl-phenyl}-[1,2,4]oxadiazol-3-yl)-2-ethyl-6-methyl-phenoxy]-2-hydroxy-propyl}-2-hydroxy-acetamide]	2.3 nM	
CCc1cc(CN(C)CC)cc(-c2nc(-c3cc(C)c(OC[C@@H](O)CNC(=O)CO)c(CC)c3)no2)c1 [Example 50, N—{(S)-3-[2-ethyl-4-(5-{3-ethyl-5-[(ethyl-methyl-amino)-methyl]-phenyl}-[1,2,4]oxadiazol-3-yl)-6-methyl-phenoxy]-2-hydroxy-propyl}-2-hydroxy-acetamide]	5.3 nM	
CCN(C)Cc1cc(C)cc(-c2nc(-c3cc(C)c(OC[C@@H](O)CNC(=O)CO)c(Cl)c3)no2)c1 [Example 148, N—{(S)-3-[2-chloro-4-(5-{3-[(ethyl-methyl-amino)-methyl]-5-methyl-phenyl}-[1,2,4]oxadiazol-3-yl)-6-methyl-phenoxy]-2-hydroxy-propyl}-2-hydroxy-acetamide]	1.3 nM	
CNCc1cccc(-c2nc(-c3cc(C)c(OCC(O)CNC(=O)CO)c(C)c3)no2)c1 (racemic) [Example 1]		EC50 ([1]; CHO membranes, human S1P1): > 10000 nM
CCCCN(CC)Cc1cc(C)cc(-c2nc(-c3cc(C)c(OC[C@@H](O)CNC(=O)CO)c(CC)c3)no2)c1 [Example 21, N—{(S)-3-[4-(5-{3-[(butyl-ethyl-amino)-methyl]-5-methyl-phenyl}-[1,2,4]oxadiazol-3-yl)-2-ethyl-6-methyl-phenoxy]-2-hydroxy-propyl}-2-hydroxy-acetamide]	5.6 nM	
CCc1cc(-c2noc(-c3cc(C)cc(CN(C)CC(C)C)c3)n2)cc(C)c1OC[C@@H](O)CNC(=O)CO [Example 19, N—{(S)-3-[2-ethyl-4-(5-{3-[(isobutyl-methyl-amino)-methyl]-5-methyl-phenyl}-[1,2,4]oxadiazol-3-yl)-6-methyl-phenoxy]-2-hydroxy-propyl}-2-hydroxy-acetamide]	2.2 nM	
CCCCN(C)Cc1ccc(-c2nc(-c3cc(C)c(OC[C@@H](O)CNC(=O)CO)c(CC)c3)no2)cc1C [Example 42, N—{(S)-3-[4-(5-{4-[(butyl-methyl-amino)-methyl]-3-methyl-phenyl}-[1,2,4]oxadiazol-3-yl)-2-ethyl-6-methyl-phenoxy]-2-hydroxy-propyl}-2-hydroxy-acetamide]	5.8 nM	
CCN(C)Cc1cc(C)cc(-c2nc(-c3cc(C)c(OC[C@@H](O)CO)c(Cl)c3)no2)c1 [Example 144, (S)-3-[2-chloro-4-(5-{3-[(ethyl-methyl-amino)-methyl]-5-methyl-phenyl}-[1,2,4]oxadiazol-3-yl)-6-methyl-phenoxy]-propane-1,2-diol]	2 nM	
CCc1cc(-c2noc(-c3cc(CN4CCCC4)cc(C(C)C)c3)n2)cc(C)c1OC[C@@H](O)CNC(=O)CO [Example 75, N—((S)-3-{2-ethyl-4-[5-(3-isopropyl-5-pyrrolidin-1-ylmethyl-phenyl)-[1,2,4]oxadiazol-3-yl]-6-methyl-phenoxy}-2-hydroxy-propyl)-2-hydroxy-acetamide]	7.2 nM	
CCc1cc(-c2nc(-c3cc(C)c(OC[C@@H](O)CNC(=O)CO)c(CC)c3)no2)ccc1CN(C)CC [Example 100, N—{(S)-3-[2-ethyl-4-(5-{3-ethyl-4-[(ethyl-methyl-amino)-methyl]-phenyl}-[1,2,4]oxadiazol-3-yl)-6-methyl-phenoxy]-2-hydroxy-propyl}-2-hydroxy-acetamide]	1.6 nM	
CCCN(C)Cc1cc(-c2nc(-c3cc(C)c(OC[C@@H](O)CNC(=O)CO)c(CC)c3)no2)cc(C(C)C)c1 [Example 71, N—{(S)-3-[2-ethyl-4-(5-{3-isopropyl-5-[(methyl-propyl-amino)-methyl]-phenyl}-[1,2,4]oxadiazol-3-yl)-6-methyl-phenoxy]-2-hydroxy-propyl}-2-hydroxy-acetamide]	2.1 nM	
